Measured values: ChEMBL document CHEMBL5325488, “Discovery of SMD-3040 as a Potent and Selective SMARCA2 PROTAC Degrader with Strong in vivo Antitumor Activity” (J Med Chem, 2023)

How the values were obtained:
[1] = target: T1, von Hippel-Lindau disease tumor suppressor/SWI/SNF-related matrix-associated actin-dependent regulator of chromatin subfamily A member 4 (Homo sapiens, UniProt P51532+P40337); test: PROTAC activity at VHL/wild-type SMARCA4 in human SK-MEL-28 cells assessed as induction of SMARCA4 degradation at 0.001 to 1000 nM incubated for 24 hrs by Western blotting analysis relative to control; assay type: cell-based; conditions: dose 0.001-1000 nM
Target sequence in this assay (P40337 whole entry, looked up, the tested form may be a part): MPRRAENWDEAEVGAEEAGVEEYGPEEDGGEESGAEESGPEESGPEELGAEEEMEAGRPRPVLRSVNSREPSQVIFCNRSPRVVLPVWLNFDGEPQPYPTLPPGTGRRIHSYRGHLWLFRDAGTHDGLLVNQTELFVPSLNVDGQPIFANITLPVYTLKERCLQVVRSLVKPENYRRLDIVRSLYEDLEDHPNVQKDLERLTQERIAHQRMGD
Target sequence in this assay (P51532 whole entry, looked up, the tested form may be a part): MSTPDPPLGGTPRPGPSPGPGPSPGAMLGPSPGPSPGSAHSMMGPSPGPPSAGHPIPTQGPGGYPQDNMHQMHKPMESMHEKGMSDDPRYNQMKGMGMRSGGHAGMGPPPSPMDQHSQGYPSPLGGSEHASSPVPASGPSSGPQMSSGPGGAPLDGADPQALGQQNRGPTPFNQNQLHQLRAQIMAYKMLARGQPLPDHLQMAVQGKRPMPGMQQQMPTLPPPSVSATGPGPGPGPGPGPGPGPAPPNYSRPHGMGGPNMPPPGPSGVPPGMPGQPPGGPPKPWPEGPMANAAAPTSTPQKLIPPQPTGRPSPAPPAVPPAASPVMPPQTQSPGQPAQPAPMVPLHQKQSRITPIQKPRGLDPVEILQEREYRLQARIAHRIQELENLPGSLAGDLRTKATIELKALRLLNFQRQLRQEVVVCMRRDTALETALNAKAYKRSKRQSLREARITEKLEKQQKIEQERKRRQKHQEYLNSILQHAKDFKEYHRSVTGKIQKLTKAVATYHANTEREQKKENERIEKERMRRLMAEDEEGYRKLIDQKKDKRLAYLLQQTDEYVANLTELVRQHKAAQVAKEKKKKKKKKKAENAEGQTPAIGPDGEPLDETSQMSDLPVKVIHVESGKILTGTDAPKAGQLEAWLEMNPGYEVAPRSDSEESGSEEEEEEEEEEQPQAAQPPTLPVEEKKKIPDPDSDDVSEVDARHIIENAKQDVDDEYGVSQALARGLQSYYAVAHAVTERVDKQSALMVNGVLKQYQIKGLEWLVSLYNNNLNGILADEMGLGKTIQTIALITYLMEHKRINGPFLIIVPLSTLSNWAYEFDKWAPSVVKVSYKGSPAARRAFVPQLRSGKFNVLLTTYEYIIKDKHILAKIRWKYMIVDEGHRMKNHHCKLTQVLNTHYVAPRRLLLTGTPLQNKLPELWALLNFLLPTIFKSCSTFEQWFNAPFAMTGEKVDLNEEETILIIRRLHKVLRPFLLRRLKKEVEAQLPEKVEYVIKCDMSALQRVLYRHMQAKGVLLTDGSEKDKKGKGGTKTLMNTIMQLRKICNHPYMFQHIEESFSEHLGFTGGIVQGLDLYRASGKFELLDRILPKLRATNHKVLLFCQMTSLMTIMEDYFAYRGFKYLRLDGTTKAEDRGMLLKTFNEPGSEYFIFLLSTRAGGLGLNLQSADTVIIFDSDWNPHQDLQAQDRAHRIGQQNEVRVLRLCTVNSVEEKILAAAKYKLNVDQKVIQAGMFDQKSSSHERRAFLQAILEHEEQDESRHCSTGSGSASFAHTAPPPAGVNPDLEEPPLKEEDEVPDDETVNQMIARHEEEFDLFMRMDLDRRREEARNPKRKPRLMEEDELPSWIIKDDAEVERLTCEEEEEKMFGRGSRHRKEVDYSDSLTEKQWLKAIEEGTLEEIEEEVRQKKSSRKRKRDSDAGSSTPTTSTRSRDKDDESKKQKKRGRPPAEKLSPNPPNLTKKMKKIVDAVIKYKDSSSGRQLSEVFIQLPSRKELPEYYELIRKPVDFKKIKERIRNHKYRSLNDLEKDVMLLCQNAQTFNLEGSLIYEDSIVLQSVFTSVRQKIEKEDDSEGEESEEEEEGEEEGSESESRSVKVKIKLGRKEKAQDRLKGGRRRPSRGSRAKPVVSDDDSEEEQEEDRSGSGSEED

[2] = target: T2, von Hippel-Lindau disease tumor suppressor/SWI/SNF-related matrix-associated actin-dependent regulator of chromatin subfamily A member 2 (Homo sapiens, UniProt P51531+P40337); test: PROTAC activity at VHL/C-terminal HiBiT fused SMARCA2 in human HeLa cells assessed as induction of SMARCA2 degradation at 0.001 to 10 uM by Nano-Glo HiBiT analysis; assay type: cell-based; conditions: dose 0.001-10 µM, time 1-48 hrs, TDE = time-dependent effect
Target sequence in this assay (P40337 whole entry, looked up, the tested form may be a part): as the sequence (P40337 whole entry, looked up, the tested form may be a part) above
Target sequence in this assay (P51531 whole entry, looked up, the tested form may be a part): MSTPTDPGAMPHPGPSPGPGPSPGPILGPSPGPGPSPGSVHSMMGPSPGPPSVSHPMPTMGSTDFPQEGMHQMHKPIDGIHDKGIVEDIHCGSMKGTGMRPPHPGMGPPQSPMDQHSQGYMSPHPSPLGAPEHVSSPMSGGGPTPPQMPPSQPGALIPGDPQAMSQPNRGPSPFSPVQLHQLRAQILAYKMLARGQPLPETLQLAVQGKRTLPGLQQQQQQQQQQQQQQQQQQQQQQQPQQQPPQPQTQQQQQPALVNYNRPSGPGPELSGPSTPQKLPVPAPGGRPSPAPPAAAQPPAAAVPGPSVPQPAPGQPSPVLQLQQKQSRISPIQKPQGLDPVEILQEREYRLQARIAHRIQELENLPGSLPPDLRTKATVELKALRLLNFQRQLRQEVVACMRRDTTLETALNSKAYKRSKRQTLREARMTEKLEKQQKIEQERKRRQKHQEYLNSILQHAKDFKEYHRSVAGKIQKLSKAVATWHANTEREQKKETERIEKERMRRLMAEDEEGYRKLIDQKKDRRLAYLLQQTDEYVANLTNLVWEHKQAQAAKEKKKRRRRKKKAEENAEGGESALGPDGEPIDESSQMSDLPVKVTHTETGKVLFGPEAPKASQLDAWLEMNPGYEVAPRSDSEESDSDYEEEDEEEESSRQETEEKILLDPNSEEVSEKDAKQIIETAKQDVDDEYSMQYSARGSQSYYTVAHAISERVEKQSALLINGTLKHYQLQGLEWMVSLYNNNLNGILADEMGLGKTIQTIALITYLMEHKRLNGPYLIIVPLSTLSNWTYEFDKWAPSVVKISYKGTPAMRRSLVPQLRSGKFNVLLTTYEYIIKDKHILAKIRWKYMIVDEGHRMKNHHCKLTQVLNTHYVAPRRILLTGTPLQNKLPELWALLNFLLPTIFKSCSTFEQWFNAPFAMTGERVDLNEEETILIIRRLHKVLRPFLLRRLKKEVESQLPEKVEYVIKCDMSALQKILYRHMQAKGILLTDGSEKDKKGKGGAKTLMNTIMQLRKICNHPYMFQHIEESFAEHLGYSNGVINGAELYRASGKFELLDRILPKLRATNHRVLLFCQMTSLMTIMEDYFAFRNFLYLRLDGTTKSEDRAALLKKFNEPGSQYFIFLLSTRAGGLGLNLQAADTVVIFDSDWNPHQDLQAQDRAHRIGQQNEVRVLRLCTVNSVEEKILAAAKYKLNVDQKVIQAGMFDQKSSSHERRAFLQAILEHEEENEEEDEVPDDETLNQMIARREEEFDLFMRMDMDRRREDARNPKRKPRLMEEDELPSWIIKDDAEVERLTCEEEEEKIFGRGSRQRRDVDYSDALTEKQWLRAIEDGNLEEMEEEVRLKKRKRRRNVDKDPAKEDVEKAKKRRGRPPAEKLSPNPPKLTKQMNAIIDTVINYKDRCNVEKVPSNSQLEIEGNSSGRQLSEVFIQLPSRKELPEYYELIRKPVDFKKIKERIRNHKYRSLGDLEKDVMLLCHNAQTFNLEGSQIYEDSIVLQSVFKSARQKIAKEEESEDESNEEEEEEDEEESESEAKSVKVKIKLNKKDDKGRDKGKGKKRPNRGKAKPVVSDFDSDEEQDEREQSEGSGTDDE

[3] = target: T2, von Hippel-Lindau disease tumor suppressor/SWI/SNF-related matrix-associated actin-dependent regulator of chromatin subfamily A member 2; test: In vivo PROTAC activity at VHL/SMARCA2 in SCID mouse xenografted with human NCI-H838 cells assessed as reduction of SMARCA2 level in tumor at 50 mg/kg, iv administered as single dose measured after 24 hrs by Western blotting analysis; assay type: functional, organism-based; design: scale not given: the % may be the effect or the level left
Target sequence in this assay (P40337 whole entry, looked up, the tested form may be a part): as the sequence (P40337 whole entry, looked up, the tested form may be a part) above
Target sequence in this assay (P51531 whole entry, looked up, the tested form may be a part): as the sequence (P51531 whole entry, looked up, the tested form may be a part) above

[4] = target: T2, von Hippel-Lindau disease tumor suppressor/SWI/SNF-related matrix-associated actin-dependent regulator of chromatin subfamily A member 2; test: In vivo PROTAC activity at VHL/SMARCA2 in SCID mouse xenografted with human MV4-11 cells assessed as reduction of SMARCA2 level in tumor at 50 mg/kg, iv administered as single dose measured after 72 hrs by Western blotting analysis; assay type: ADME, organism-based; design: scale not given: the % may be the effect or the level left
[5] = target: T1, von Hippel-Lindau disease tumor suppressor/SWI/SNF-related matrix-associated actin-dependent regulator of chromatin subfamily A member 4; test: PROTAC activity at VHL/C-terminal HiBiT fused SMARCA4 in human HeLa cells assessed as induction of SMARCA4 degradation by measuring maximal efficacy at 0.001 to 10 uM incubated for 48 hrs by Nano-Glo HiBiT analysis relative to control; assay type: cell-based; conditions: dose 0.001-10 µM
Target sequence in this assay (P40337 whole entry, looked up, the tested form may be a part): as the sequence (P40337 whole entry, looked up, the tested form may be a part) above
Target sequence in this assay (P51532 whole entry, looked up, the tested form may be a part): as the sequence (P51532 whole entry, looked up, the tested form may be a part) above

[6] = Drug concentration in SCID mouse plasma xenografted with human MV4-11 cells at 50 mg/kg, iv measured after 48 hrs by LC-MS/MS method; assay type: ADME, organism-based
[7] = target: T1, von Hippel-Lindau disease tumor suppressor/SWI/SNF-related matrix-associated actin-dependent regulator of chromatin subfamily A member 4; test: In vivo PROTAC activity at VHL/SMARCA4 in SCID mouse xenografted with human MV4-11 cells assessed as remaining activity in tumor at 50 mg/kg, iv administered as single dose measured after 48 hrs by Western blotting analysis (reference value: 100 +/- 15 % ); assay type: ADME, organism-based
[8] = target: T2, von Hippel-Lindau disease tumor suppressor/SWI/SNF-related matrix-associated actin-dependent regulator of chromatin subfamily A member 2; test: PROTAC activity at VHL/wild-type SMARCA2 in human NCI-H838 cells assessed as induction of SMARCA2 degradation at 0.001 to 1000 nM incubated for 24 hrs by Western blotting analysis relative to control; assay type: cell-based; conditions: dose 0.001-1000 nM
Target sequence in this assay (P40337 whole entry, looked up, the tested form may be a part): as the sequence (P40337 whole entry, looked up, the tested form may be a part) above
Target sequence in this assay (P51531 whole entry, looked up, the tested form may be a part): as the sequence (P51531 whole entry, looked up, the tested form may be a part) above

[9] = target: T2, von Hippel-Lindau disease tumor suppressor/SWI/SNF-related matrix-associated actin-dependent regulator of chromatin subfamily A member 2; test: PROTAC activity at VHL/C-terminal HiBiT fused SMARCA2 in human HeLa cells assessed as induction of SMARCA2 degradation at 0.0001 to 1 uM incubated for 6 hrs by Nano-Glo HiBiT analysis relative to control; assay type: cell-based; conditions: dose 0.0001-1 µM
Target sequence in this assay (P40337 whole entry, looked up, the tested form may be a part): as the sequence (P40337 whole entry, looked up, the tested form may be a part) above
Target sequence in this assay (P51531 whole entry, looked up, the tested form may be a part): as the sequence (P51531 whole entry, looked up, the tested form may be a part) above

[10] = target: T1, von Hippel-Lindau disease tumor suppressor/SWI/SNF-related matrix-associated actin-dependent regulator of chromatin subfamily A member 4; test: PROTAC activity at VHL/C-terminal HiBiT fused SMARCA4 in human HeLa cells assessed as induction of SMARCA4 degradation by measuring maximal efficacy at 0.001 to 10 uM incubated for 1 hr by Nano-Glo HiBiT analysis relative to control; assay type: cell-based; conditions: dose 0.001-10 µM
Target sequence in this assay (P40337 whole entry, looked up, the tested form may be a part): as the sequence (P40337 whole entry, looked up, the tested form may be a part) above
Target sequence in this assay (P51532 whole entry, looked up, the tested form may be a part): as the sequence (P51532 whole entry, looked up, the tested form may be a part) above

NCI-H647 = test: Antiproliferative activity against human NCI-H647 cells expressing wild-type SMARCA2 assessed as cell growth inhibition measured after 7 days by WST-8 assay; assay type: functional; conditions: NCI-H647, 168 h, time 7 day
[11] = Antiproliferative activity against SMARCA4-deficient human NCI-H1568 cells assessed as cell growth inhibition by measuring maximal efficacy measured after 7 days by WST-8 assay relative to control; assay type: functional; conditions: time 7 day
[12] = target: T2, von Hippel-Lindau disease tumor suppressor/SWI/SNF-related matrix-associated actin-dependent regulator of chromatin subfamily A member 2; test: In vivo PROTAC activity at VHL/SMARCA2 in SCID mouse xenografted with human MV4-11 cells assessed as reduction of SMARCA2 level in tumor at 50 mg/kg, iv administered as single dose measured after 24 hrs by Western blotting analysis; assay type: ADME, organism-based; design: scale not given: the % may be the effect or the level left
[13] = target: T1, von Hippel-Lindau disease tumor suppressor/SWI/SNF-related matrix-associated actin-dependent regulator of chromatin subfamily A member 4; test: In vivo PROTAC activity at VHL/SMARCA4 in SCID mouse xenografted with human MV4-11 cells assessed as reduction of SMARCA4 level in tumor at 50 mg/kg, iv administered as single dose measured after 72 hrs by Western blotting analysis; assay type: ADME, organism-based; design: scale not given: the % may be the effect or the level left
SK-MEL-5 = test: Antitumor activity against SMARCA4-deficient human SK-MEL-5 cells xenografted in SCID mouse assessed as tumor growth inhibition at 25 mg/kg, iv administered twice a week measured after 32 days relative to control; assay type: functional; conditions: SK-MEL-5, 768 h, time 32 day, read-out: TGI
[14] = Drug concentration in SCID mouse tumor xenografted with human MV4-11 cells at 50 mg/kg, iv measured after 48 hrs by LC-MS/MS method; assay type: ADME, organism-based, Neoplasm; conditions: read-out: Ct
[15] = target: T2, von Hippel-Lindau disease tumor suppressor/SWI/SNF-related matrix-associated actin-dependent regulator of chromatin subfamily A member 2; test: PROTAC activity at VHL/C-terminal HiBiT fused SMARCA2 in human HeLa cells assessed as induction of SMARCA2 degradation by measuring maximal efficacy incubated for 24 hrs by Nano-Glo HiBiT analysis relative to control; assay type: cell-based
Target sequence in this assay (P40337 whole entry, looked up, the tested form may be a part): as the sequence (P40337 whole entry, looked up, the tested form may be a part) above
Target sequence in this assay (P51531 whole entry, looked up, the tested form may be a part): as the sequence (P51531 whole entry, looked up, the tested form may be a part) above

A549 = test: Antiproliferative activity against SMARCA4-deficient human A549 cells assessed as cell growth inhibition measured after 7 days by WST-8 assay; assay type: functional; conditions: A549, 168 h, time 7 day
[16] = target: T1, von Hippel-Lindau disease tumor suppressor/SWI/SNF-related matrix-associated actin-dependent regulator of chromatin subfamily A member 4; test: PROTAC activity at VHL/C-terminal HiBiT fused SMARCA4 in human HeLa cells assessed as induction of SMARCA4 degradation by measuring maximal efficacy at 0.001 to 10 uM incubated for 3 hrs by Nano-Glo HiBiT analysis relative to control; assay type: cell-based; conditions: dose 0.001-10 µM
Target sequence in this assay (P40337 whole entry, looked up, the tested form may be a part): as the sequence (P40337 whole entry, looked up, the tested form may be a part) above
Target sequence in this assay (P51532 whole entry, looked up, the tested form may be a part): as the sequence (P51532 whole entry, looked up, the tested form may be a part) above

[17] = target: T2, von Hippel-Lindau disease tumor suppressor/SWI/SNF-related matrix-associated actin-dependent regulator of chromatin subfamily A member 2; test: In vivo PROTAC activity at VHL/SMARCA2 in SCID mouse xenografted with human NCI-H838 cells assessed as reduction of SMARCA2 level in tumor at 50 mg/kg, iv administered as single dose measured after 96 hrs by Western blotting analysis; assay type: functional, organism-based; design: scale not given: the % may be the effect or the level left
Target sequence in this assay (P40337 whole entry, looked up, the tested form may be a part): as the sequence (P40337 whole entry, looked up, the tested form may be a part) above
Target sequence in this assay (P51531 whole entry, looked up, the tested form may be a part): as the sequence (P51531 whole entry, looked up, the tested form may be a part) above

[18] = target: T1, von Hippel-Lindau disease tumor suppressor/SWI/SNF-related matrix-associated actin-dependent regulator of chromatin subfamily A member 4; test: In vivo PROTAC activity at VHL/SMARCA4 in SCID mouse xenografted with human MV4-11 cells assessed as reduction of SMARCA4 level in tumor at 50 mg/kg, iv administered as single dose measured after 2 hrs by Western blotting analysis; assay type: ADME, organism-based; design: scale not given: the % may be the effect or the level left
[19] = Drug concentration in SCID mouse plasma xenografted with human MV4-11 cells at 50 mg/kg, iv measured after 72 hrs by LC-MS/MS method; assay type: ADME, organism-based
[20] = target: T1, von Hippel-Lindau disease tumor suppressor/SWI/SNF-related matrix-associated actin-dependent regulator of chromatin subfamily A member 4; test: PROTAC activity at VHL/C-terminal HiBiT fused SMARCA4 in human HeLa cells assessed as induction of SMARCA4 degradation incubated for 24 hrs by Nano-Glo HiBiT analysis; assay type: cell-based
[21] = target: T2, von Hippel-Lindau disease tumor suppressor/SWI/SNF-related matrix-associated actin-dependent regulator of chromatin subfamily A member 2; test: PROTAC activity at VHL/C-terminal HiBiT fused SMARCA2 in human HeLa cells assessed as induction of SMARCA2 degradation at 0.0001 to 1 uM incubated for 3 hrs by Nano-Glo HiBiT analysis relative to control; assay type: cell-based; conditions: dose 0.0001-1 µM
[22] = target: T2, von Hippel-Lindau disease tumor suppressor/SWI/SNF-related matrix-associated actin-dependent regulator of chromatin subfamily A member 2; test: In vivo PROTAC activity at VHL/SMARCA2 in SCID mouse xenografted with human MV4-11 cells assessed as reduction of SMARCA2 level in tumor at 50 mg/kg, iv administered as single dose measured after 96 hrs by Western blotting analysis; assay type: ADME, organism-based; design: scale not given: the % may be the effect or the level left

- Emax [1]: 24%
- Activity [2]: Tde
- Activity [3]: 91%
- Activity [4]: 56%
- Emax [5]: 68%
- concentration at 48 h [6]: 60.5 ng/mL
- Activity [7]: 87%
- Emax [8]: 90%
- Emax [9]: 80%
- Emax [10]: 20%
- GI50 (NCI-H647): 3100 nM
- Activity [12]: 86%
- Activity [13]: 9%
- concentration at 48 h [14]: 978 ng/g
- Emax [15]: 91%
- GI50 (A549): 42 nM
- Emax [16]: 46%
- Activity [17]: 67%
- Activity [18]: 7%
- concentration at 72 h [19]: 6.7 ng/mL
- DC50 [20]: > 339 nM
- Emax [21]: 79%
- Activity [22]: 74%
Compound: Cc1ncsc1-c1ccc([C@H](C)NC(=O)[C@@H]2C[C@@H](O)CN2C(=O)[C@@H](NC(=O)[C@H]2CC[C@H](CN3CC4(CCC(n5cc(-c6cc(-c7ccccc7O)nnc6N)cn5)CC4)C3)CC2)C(C)(C)C)cc1
- Imax [11]: 79%
- inhibition in vivo at 25 mg/kg (SK-MEL-5): 54%
